We go through 1 compound from US12268781B2, “Sustained-release pharmaceutical compositions comprising a therapeutic agent for treating dementia and uses thereof” (priority 2018, dated 2025).

In general, AUC(0-inf) refers to total exposure, with the tail of the curve extrapolated. High values mean more exposure, low ones less exposure. Usually AUC(0-t) stands for exposure summed from dosing to a finite time, without extrapolation to infinity. A higher AUC(0-t) goes with more exposure. One may read the Cmax as the peak of the concentration-time curve.

A short description of data set [1]: In vitro release, plasma free system (dialysis bag in PBS). The data set is classed as physicochemical. To be noted: PBS pH 7.4, 37 °C, within 2 hours. The protocol:
(§1) Two in vitro release systems were used in this study, the first system was the plasma free environment and the second system was the human plasma environment. To set up the first in vitro release system, 1.0 mL of liposomal rivastigmine formulation prepared according to Example 1 and 1.0 mL of free rivastigmine tartrate were placed in separate dialysis bags (Spectra/Pro*6 dialysis membrane, MWCO 50 kDa, Spectrum Labs) and both ends of the dialysis bags were sealed. To set up the second in vitro release system, 1.0 mL of liposomal rivastigmine formulation prepared according to Example 1 and 1.0 mL of free rivastigmine tartrate were placed in separate dialysis bags, each containing 1 mL of human plasma (Valley Biomedical, Inc.) and both ends of the dialysis bags were sealed. Each dialysis bag was immersed in 25 mL PBS at pH 7.4 in a 50-mL centrifuge tube and incubated in a water bath at 37±1° C. for 24 hours. At designated time points after incubation (1, 2, 4, 6 and 24 hours), 0.5 mL aliquot from the 25-mL PBS was sampled and 0.5 mL of fresh PBS was added to replace the sampling aliquot. Drug concentrations of the sampling aliquots at each time point were analyzed using high performance liquid chromatography (HPLC) to create the in vitro release profile.

Data set [2] can be described thus: PK study of liposomal rivastigmine in rats, subcutaneous injection. The format is in vivo, Sprague-Dawley rats. The method, then: An in vivo PK evaluation of the liposomal rivastigmine formulation was performed using 7-8 weeks old female Sprague-Dawley rats. The rats were housed in a holding room which operated on a 12-hr light/12-hr dark circadian cycle with free access to water and food.
The rats were divided into two groups (n=3 in each group), one group received subcutaneous injection of 10 mg/kg of free rivastigmine tartrate, prepared by dissolving rivastigmine tartrate in ultrapure water with a final concentration of 2 mg/mL. The other group received subcutaneous injection of 10 mg/kg of liposomal rivastigmine tartrate, prepared according to Example 1. Blood samples were collected at 15 min, 1, 2, 4, 6, 8, 24, 48, and 72 hours post-injection. Plasma samples were obtained by centrifugation, kept frozen at −80° C. and analyzed using a noncompartmental analysis model in PKSolver (Comput Methods Programs Biomed. 2010; 99(3):306-314).

Data set [3] can be described thus: In vitro release, human plasma system (dialysis bag in PBS). The format is in vitro ADME. The conditions noted are these: 37 °C, within 4 hours. The method, then: as §1
[4] abbreviates: female, Sprague-Dawley, rat, plasma, sc, single subcutaneous injection 10 mg/kg.

Counter-ions that a name gives are not always drawn.

In the case of `CCN(C)C(=O)Oc1cccc([C@H](C)N(C)C)c1` [Free Rivastigmine, rivastigmine tartrate], the “rivastigmine released through the dialysis bag” value in data set [1] is recorded as “one hundred”. In addition, the rivastigmine in plasma result in data set [2] (8 hours post injection, FIG. 2) is “undetectable”. Also, the “rivastigmine released as indicated by AUC0-t” value in data set [2] (72 hours post-injection) was determined as 100%. In addition, in data set [2] (setting [4]), the AUC(0-inf) turned out to be 899 ng·h/mL, the AUC(0-t) is 896 ng·h/mL and the highest level (Cmax) was 427 ng/mL. Moreover, the half-life in data set [2] (female, Sprague-Dawley, rat, plasma, sc, single subcutaneous injection 10 mg/kg, read-out: t½ (converted)) was 55.8 min. The rivastigmine released in data set [3] stood at 90%.
